In ChEMBL document CHEMBL5053549, “Discovery of Potent and Novel Dual PARP/BRD4 Inhibitors for Efficient Treatment of Pancreatic Cancer” (J Med Chem, 2021):
Activity calls are given as the source filed them. No cut-off for these calls is given here.

What was measured:
SW1990 [1] = experiment: Antiproliferative activity against human SW1990 cells assessed as reduction in cell viability after 4 days by MTT assay; type: functional, cell-based; details: SW1990, 96 h
MDA-MB-231 = experiment: Antiproliferative activity against human MDA-MB-231 cells assessed as reduction in cell viability after 7 days; type: functional, cell-based; details: MDA-MB-231, 168 h
[2] = target: T1, Bromodomain-containing protein 4 (Homo sapiens, UniProt O60885); experiment: Inhibition of recombinant BRD4 (unknown origin) at 0.5 uM incubated for 120 mins by TR-FRET assay relative to control
[3] = target: Poly [ADP-ribose] polymerase 1 (Homo sapiens, UniProt P09874); experiment: Inhibition of PARP1 (unknown origin) incubated for 45 mins in presence of biotinylated-NAD+ by microplate reader analysis
[4] = target: T1, Bromodomain-containing protein 4; experiment: Inhibition of recombinant BRD4 (unknown origin) incubated for 120 mins by TR-FRET assay
Mus musculus [5] = experiment: Toxicity in BALB/c mouse xenografted with human SW1990 cells assessed as heart damage at 45 mg/kg, ip administered for 28 consecutive days by H and E staining based […] microscopic analysis; type: organism-based; details: in vivo, 672 h, time 28 day
Mus musculus [6] = experiment: Toxicity in BALB/c mouse xenografted with human SW1990 cells assessed as kidney damage at 45 mg/kg, ip administered for 28 consecutive days by H and E staining based […] microscopic analysis; type: organism-based; details: in vivo, 672 h, time 28 day
SW1990 [7] = experiment: Inhibition of homologous recombinant repair in human SW1990 cells assessed as reduction in BRCA1 expression at 6 uM after 4 days by Western blot analysis; type: functional, cell-based; details: time 4.0 day
SW1990 [8] = experiment: Induction of DNA damage in human SW1990 cells assessed as increase in gammaH2AX at 6 uM incubated for 4 days by immunofluorescence assay; type: functional, cell-based; details: time 4.0 day
Mus musculus [9] = experiment: In vivo inhibition of BRD4 expression in human […] cells xenografted in BALB/c mouse at 45 mg/kg, ip administered for 28 consecutive days by Western blot analysis; type: functional, organism-based; details: time 28.0 day
SW1990 [10] = experiment: Effect on cell cycle progression in human SW1990 cells assessed as reduction in PLK1 expression at 6 uM after 4 days by Western blot analysis; type: functional, cell-based; details: time 4.0 day
CAPAN-1 = experiment: Antiproliferative activity against human CAPAN-1 cells assessed as reduction in cell viability after 4 days by MTT assay; type: functional, cell-based; details: CAPAN-1, 96 h
SW1990 [11] = experiment: Inhibition of homologous recombinant repair in human SW1990 cells assessed as reduction in Rad51 expression at 6 uM after 4 days by Western blot analysis; type: functional, cell-based; details: time 4.0 day
SW1990 [12] = experiment: Induction of DNA damage in human SW1990 cells assessed as tail DNA at 6 uM incubated for 4 days by comet assay; type: functional, cell-based; details: time 4.0 day
Mus musculus [13] = experiment: Toxicity in BALB/c mouse xenografted with human SW1990 cells assessed as lung damage at 45 mg/kg, ip administered for 28 consecutive days by H and E staining based […] microscopic analysis; type: organism-based; details: in vivo, 672 h, time 28 day
Mus musculus [14] = experiment: Effect on cell cycle progression in human SW1990 cells xenografted in BALB/c mouse assessed as reduction in CDK6 expression at 45 mg/kg, ip after 4 days by Western blot analysis; type: functional, organism-based; details: time 4.0 day
Mus musculus [15] = experiment: Toxicity in BALB/c mouse xenografted with human SW1990 cells assessed as effect on body weight at 45 mg/kg, ip administered for 28 consecutive days; type: organism-based; details: in vivo, 672 h, time 28 day
SW1990 [16] = experiment: Effect on cell cycle progression in human SW1990 cells assessed as reduction in CCND1 expression at 6 uM after 4 days by Q-PCR analysis; type: functional, cell-based; details: time 4.0 day
[17] = target: T1, Bromodomain-containing protein 4; experiment: Inhibition of BRD4 expression in human SW1990 cells at 6 uM after 4 days by Western blot analysis; type: cell-based; details: time 4.0 day
Mus musculus [18] = experiment: Effect on cell cycle progression in human SW1990 cells xenografted in BALB/c mouse assessed as reduction in PLK1 expression at 45 mg/kg, ip after 4 days by Q-PCR analysis; type: functional, organism-based; details: time 4.0 day
[19] = target: T1, Bromodomain-containing protein 4; experiment: Inhibition of BRD4 expression in human SW1990 cells at 6 uM after 4 days by Q-PCR analysis; type: cell-based; details: time 4.0 day
CFPAC-1 = experiment: Antiproliferative activity against human CFPAC-1 cells assessed as reduction in cell viability after 4 days by MTT assay; type: functional, cell-based; details: CFPAC-1, 96 h
Mus musculus [20] = experiment: In vivo inhibition of PARP1 expression in human […] cells xenografted in BALB/c mouse at 45 mg/kg, ip administered for 28 consecutive days by Western blot analysis; type: functional, organism-based; details: time 28.0 day
SW1990 [21] = experiment: Effect on cell cycle progression in human SW1990 cells assessed as reduction in PLK1 expression at 6 uM after 4 days by Q-PCR analysis; type: functional, cell-based; details: time 4.0 day
Mus musculus [22] = experiment: In vivo inhibition of PARP1 expression in human […] cells xenografted in BALB/c mouse at 45 mg/kg, ip administered for 28 consecutive days by immunohistochemical analysis; type: functional, organism-based; details: time 28.0 day
Mus musculus [23] = experiment: In vivo inhibition of BRD4 expression in human […] cells xenografted in BALB/c mouse at 45 mg/kg, ip administered for 28 consecutive days by Q-PCR analysis; type: functional, organism-based; details: time 28.0 day
Mus musculus [24] = experiment: Effect on cell cycle progression in human SW1990 cells xenografted in BALB/c mouse assessed as reduction in CCND1 expression at 45 mg/kg, ip after 4 days by Western blot analysis; type: functional, organism-based; details: time 4.0 day
Mus musculus [25] = experiment: Effect on cell cycle progression in human SW1990 cells xenografted in BALB/c mouse assessed as reduction in CDK6 expression at 45 mg/kg, ip after 4 days by Q-PCR analysis; type: functional, organism-based; details: time 4.0 day
Mus musculus [26] = experiment: Effect on cell cycle progression in human SW1990 cells xenografted in BALB/c mouse assessed as reduction in PLK1 expression at 45 mg/kg, ip after 4 days by Western blot analysis; type: functional, organism-based; details: time 4.0 day
SW1990 [27] = experiment: Inhibition of homologous recombinant repair in human SW1990 cells assessed as reduction in Rad51 expression at 6 uM after 4 days by Q-PCR analysis; type: functional, cell-based; details: time 4.0 day
Mus musculus [28] = experiment: Toxicity in BALB/c mouse xenografted with human SW1990 cells assessed as spleen damage at 45 mg/kg, ip administered for 28 consecutive days by H and E staining based […] microscopic analysis; type: organism-based; details: in vivo, 672 h, time 28 day
SW1990 [29] = experiment: Inhibition of homologous recombinant repair in human SW1990 cells assessed as reduction in BRCA1 expression at 6 uM after 4 days by Q-PCR analysis; type: functional, cell-based; details: time 4.0 day
Mus musculus [30] = experiment: In vivo inhibition of BRD4 expression in human […] cells xenografted in BALB/c mouse at 45 mg/kg, ip administered for 28 consecutive days by immunohistochemical analysis; type: functional, organism-based; details: time 28.0 day
SW1990 [31] = experiment: Effect on cell cycle progression in human SW1990 cells assessed as reduction in CDK6 expression at 6 uM after 4 days by Western blot analysis; type: functional, cell-based; details: time 4.0 day
SW1990 [32] = experiment: Effect on cell cycle progression in human SW1990 cells assessed as reduction in CCND1 expression at 6 uM after 4 days by Western blot analysis; type: functional, cell-based; details: time 4.0 day
SW1990 [33] = experiment: Induction of autophagy in human SW1990 cells assessed as reduction in p62 expression at 6 uM incubated for 4 days by immunofluorescence assay; type: functional, cell-based; details: time 4.0 day
SW1990 [34] = experiment: Inhibition of homologous recombinant repair in human SW1990 cells assessed as reduction in FOXM1 expression at 6 uM after 4 days by Q-PCR analysis; type: functional, cell-based; details: time 4.0 day
SW1990 [35] = experiment: Induction of autophagy in human SW1990 cells assessed as increase in LC3B expression at 6 uM incubated for 4 days by immunofluorescence assay; type: functional, cell-based; details: time 4.0 day
SW1990 [36] = experiment: Effect on cell cycle progression in human SW1990 cells assessed as reduction in CDK6 expression at 6 uM after 4 days by Q-PCR analysis; type: functional, cell-based; details: time 4.0 day
Mus musculus [37] = experiment: In vivo inhibition of PARP1 expression in human […] cells xenografted in BALB/c mouse at 45 mg/kg, ip administered for 28 consecutive days by Q-PCR analysis; type: functional, organism-based; details: time 28.0 day
Mus musculus [38] = experiment: Toxicity in BALB/c mouse xenografted with human SW1990 cells assessed as liver damage at 45 mg/kg, ip administered for 28 consecutive days by H and E staining based […] microscopic analysis; type: organism-based; details: in vivo, 672 h, time 28 day
Mus musculus [39] = experiment: Effect on cell cycle progression in human SW1990 cells xenografted in BALB/c mouse assessed as reduction in CCND1 expression at 45 mg/kg, ip after 4 days by Q-PCR analysis; type: functional, organism-based; details: time 4.0 day

Poly [ADP-ribose] polymerase 1, sequence (P09874 whole entry): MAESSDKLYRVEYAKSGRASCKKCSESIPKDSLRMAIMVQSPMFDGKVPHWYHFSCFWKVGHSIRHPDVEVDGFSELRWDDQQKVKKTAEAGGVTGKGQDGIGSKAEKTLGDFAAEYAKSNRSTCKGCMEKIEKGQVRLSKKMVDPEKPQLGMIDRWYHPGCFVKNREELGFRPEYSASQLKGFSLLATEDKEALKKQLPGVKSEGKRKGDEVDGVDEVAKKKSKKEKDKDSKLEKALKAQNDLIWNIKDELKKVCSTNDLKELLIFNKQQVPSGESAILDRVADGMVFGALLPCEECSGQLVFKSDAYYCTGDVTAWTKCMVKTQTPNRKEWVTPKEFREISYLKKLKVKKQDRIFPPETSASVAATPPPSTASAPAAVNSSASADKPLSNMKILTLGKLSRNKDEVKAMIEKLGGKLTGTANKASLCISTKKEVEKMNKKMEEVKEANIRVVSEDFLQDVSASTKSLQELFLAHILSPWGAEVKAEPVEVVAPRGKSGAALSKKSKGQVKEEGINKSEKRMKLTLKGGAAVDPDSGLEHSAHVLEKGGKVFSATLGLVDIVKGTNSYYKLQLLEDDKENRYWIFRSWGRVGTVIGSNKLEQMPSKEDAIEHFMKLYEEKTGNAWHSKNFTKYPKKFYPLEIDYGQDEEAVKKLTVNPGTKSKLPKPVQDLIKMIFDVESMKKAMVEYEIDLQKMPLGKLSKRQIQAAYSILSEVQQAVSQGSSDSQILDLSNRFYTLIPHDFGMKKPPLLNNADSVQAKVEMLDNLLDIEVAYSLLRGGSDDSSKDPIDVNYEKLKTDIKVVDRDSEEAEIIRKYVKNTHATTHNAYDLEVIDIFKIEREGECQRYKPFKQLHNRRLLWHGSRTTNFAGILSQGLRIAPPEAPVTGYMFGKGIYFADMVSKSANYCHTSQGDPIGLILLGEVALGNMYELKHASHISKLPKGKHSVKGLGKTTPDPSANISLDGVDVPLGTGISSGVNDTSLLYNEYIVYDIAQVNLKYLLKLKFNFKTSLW

SMILES: CC[C@@H]1C(=O)N(C)c2cnc(Nc3ccc(-c4nc5c(C(N)=O)cccc5[nH]4)cc3OC)nc2N1Cc1ccc(C)s1
- IC50 (SW1990 [1]): 3.74 µM
- IC50 (MDA-MB-231): 1.25 µM
- inhibition [2]: 52%
- IC50 [3]: 0.338 µM

SMILES: CC[C@@H]1C(=O)N(C)c2cnc(Nc3ccc(-c4nc5c(C(N)=O)cccc5[nH]4)cc3OC)nc2N1Cc1cccc(C(F)(F)F)c1
- inhibition [2]: 17%
- IC50 [3]: 1.76 µM

SMILES: CC[C@@H]1C(=O)N(C)c2cnc(Nc3ccc(-c4nc5c(C(N)=O)cccc5[nH]4)cc3)nc2N1C1CCCC1
- IC50 (SW1990 [1]): 2.81 µM
- IC50 (MDA-MB-231): 0.83 µM
- IC50 [3]: 0.043 µM
- IC50 [4]: 0.842 µM

SMILES: CC[C@@H]1C(=O)N(C)c2cnc(Nc3ccc(C(C)c4nc5c(C(N)=O)cccc5[nH]4)cc3OC)nc2N1C1CCCC1 (some centres undefined)
- inhibition [2]: 74%
- IC50 [3]: 0.236 µM

SMILES: CC[C@@H]1C(=O)N(C)c2cnc(Nc3ccc(-c4nc5c(C(N)=O)cccc5[nH]4)cc3OC)nc2N1Cc1ccccc1
- inhibition [2]: 21%
- IC50 [3]: 0.461 µM

SMILES: COc1cc(-c2nc3c(C(N)=O)cccc3[nH]2)ccc1Nc1ncc2c(n1)N(C1CCCC1)[C@H](C)C(=O)N2C
- IC50 (SW1990 [1]): 1.62 µM
- IC50 (MDA-MB-231): 0.47 µM
- IC50 [3]: 0.127 µM
- IC50 [4]: 0.25 µM

SMILES: CC[C@@H]1C(=O)N(C)c2cnc(Nc3ccc(-c4nc5c(C(N)=O)cccc5[nH]4)cc3OC3CCCC3)nc2N1C1CCCC1
- inhibition [2]: 47%
- IC50 [3]: 1.82 µM

SMILES: O=C(c1cc(Cc2n[nH]c(=O)c3ccccc23)ccc1F)N1CCN(C(=O)C2CC2)CC1 [OLAPARIB]
- Activity (Mus musculus [5]): Non-Toxic
- IC50 (SW1990 [1]): 5.73 µM
- Activity (Mus musculus [6]): Non-Toxic
- inhibition (SW1990 [7]): inactive
- Activity (SW1990 [8]): inactive
- Activity (Mus musculus [9]): inactive
- Activity (SW1990 [10]): inactive
- IC50 (CAPAN-1): 8.42 µM
- inhibition (SW1990 [11]): inactive
- Activity (SW1990 [12]): Active
- Activity (Mus musculus [13]): Non-Toxic
- Activity (Mus musculus [14]): inactive
- IC50 (MDA-MB-231): 8.48 µM
- Activity (Mus musculus [15]): Non-Toxic
- Activity (SW1990 [16]): inactive
- inhibition [17]: inactive
- Activity (Mus musculus [18]): inactive
- inhibition [19]: inactive
- IC50 (CFPAC-1): 13.7 µM
- Activity (Mus musculus [20]): inactive
- Activity (SW1990 [21]): inactive
- Activity (Mus musculus [22]): inactive
- Activity (Mus musculus [23]): inactive
- Activity (Mus musculus [24]): inactive
- Activity (Mus musculus [25]): inactive
- Activity (Mus musculus [26]): inactive
- inhibition (SW1990 [27]): inactive
- Activity (Mus musculus [28]): Non-Toxic
- inhibition (SW1990 [29]): inactive
- Activity (Mus musculus [30]): inactive
- Activity (SW1990 [31]): inactive
- Activity (SW1990 [32]): inactive
- Activity (SW1990 [33]): inactive
- inhibition (SW1990 [34]): inactive
- Activity (SW1990 [35]): inactive
- Activity (SW1990 [36]): inactive
- Activity (Mus musculus [37]): inactive
- Activity (Mus musculus [38]): Non-Toxic
- Activity (Mus musculus [39]): inactive
